Active and inactive are the calls of the source. The calls are words filed in the database; no cut-off is given here.
Assays:
[1] = system: HGC-27; assay: Antiproliferative activity against human HGC-27 cells assessed as reduction in cell viability after 24 hrs by MTT assay; format: functional, cell-based; details: HGC-27, 24 h
[2] = system: GES1; assay: Antiproliferative activity against human GES1 cells assessed as reduction in cell viability after 24 hrs by MTT assay; format: functional, cell-based; details: GES1, 24 h
[3] = system: MGC-803; assay: Antitumor activity against human MGC-803 cells xenografted in immunodeficient nude mouse assessed as reduction in tumor growth at 50 mg/kg, ip administered for 3 weeks relative to control; format: functional; details: MGC-803, 504 h, read-out: TGI
[4] = system: MGC-803; assay: Induction of apoptosis in human MGC-803 cells assessed as reduction in BCl2 expression at 1.25 to 10 uM by western blot analysis; format: functional, cell-based; details: dose 1.25-10 µM, DDE = dose-dependent effect
[5] = system: MGC-803; assay: Antitumor activity against human MGC-803 cells xenografted in immunodeficient nude mouse assessed as increase in survival at 50 mg/kg, ip administered for 3 weeks; format: functional, organism-based
[6] = system: MGC-803; assay: Inhibition of cell invasion in human MGC-803 cells assessed as reduction in invasion at 0.5 to 4 uM for 24 hrs by transwell invasion assay; format: functional, cell-based; details: dose 0.5-4 µM, DDE = dose-dependent effect
[7] = species on record: Homo sapiens; assay: Inhibition of DNA topoisomerase 1 (unknown origin) assessed as relaxation of supercoiled plasmid pBR322 DNA at 12.5 to 100 uM incubated for 30 mins by agarose gel electrophoresis; details: dose 12.5-100 µM
[8] = system: MGC-803; assay: Inhibition of cell migration in human MGC-803 cells assessed as reduction in migration at 0.5 to 4 uM for 24 hrs by wound healing assay; format: functional, cell-based; details: dose 0.5-4 µM, DDE = dose-dependent effect
[9] = system: MGC-803; assay: Inhibition of PI3K/AKT/mTOR signalling pathway in human MGC-803 cells assessed as reduction in AKT phosphorylation at 1.25 to 10 uM by western blot analysis; format: cell-based; details: dose 1.25-10 µM, DDE = dose-dependent effect
[10] = system: HGC-27; assay: Inhibition of PI3K/AKT/mTOR signalling pathway in human HGC-27 cells assessed as reduction in PI3K phosphorylation at 2 to 16 uM by western blot analysis; format: cell-based; details: dose 2-16 µM, DDE = dose-dependent effect
[11] = system: HGC-27; assay: Induction of apoptosis in human HGC-27 cells assessed as increase in twin-kiling cell nuclei at 2 to 16 uM by Hoechst 33342 staining based fluorescent microscopic analysis; format: functional; details: dose 2-16 µM
[12] = system: HGC-27; assay: Induction of apoptosis in human HGC-27 cells assessed as increase in cleaved caspase-3 expression at 2 to 16 uM by western blot analysis; format: functional, cell-based; details: dose 2-16 µM, DDE = dose-dependent effect
[13] = system: MGC-803; assay: Inhibition of PI3K/AKT/mTOR signalling pathway in human MGC-803 cells assessed as reduction in mTOR phosphorylation at 1.25 to 10 uM by western blot analysis; format: cell-based; details: dose 1.25-10 µM, DDE = dose-dependent effect
[14] = system: MGC-803; assay: Antitumor activity against human MGC-803 cells xenografted in immunodeficient nude mouse assessed as increase in TUNEL positive cells at 50 mg/kg, ip administered for 3 weeks by fluorescence microscopic analysis; format: functional, organism-based
[15] = system: HGC-27; assay: Inhibition of cell migration in human HGC-27 cells assessed as reduction in migration at 1 to 8 uM for 24 hrs by wound healing assay; format: functional, cell-based; details: dose 1-8 µM, DDE = dose-dependent effect
[16] = Cmax in Sprague-Dawley rat at 50 mg/kg, ip measured upto 24 hrs by LC-MS analysis; format: ADME, organism-based; set-up: time < 24 hrs, dose 50 mg/kg, route ip; details: in vivo
[17] = system: HGC-27; assay: Inhibition of cell migration in human HGC-27 cells assessed as reduction in migration at 1 to 8 uM for 24 hrs by transwell migration assay; format: functional, cell-based; details: dose 1-8 µM, DDE = dose-dependent effect
[18] = system: MGC-803; assay: Induction of ROS generation in human MGC-803 cells at 1.25 to 10 uM by DCFH-DA staining based fluorescence microscopic analysis; format: functional, cell-based; details: dose 1.25-10 µM, DDE = dose-dependent effect
[19] = system: MGC-803; assay: Induction of apoptosis in human MGC-803 cells assessed as decrease in cytochrome C expression at 1.25 to 10 uM by western blot analysis; format: functional, cell-based; details: dose 1.25-10 µM, DDE = dose-dependent effect
[20] = system: MGC-803; assay: Induction of apoptosis in human MGC-803 cells assessed as increase in cleaved caspase-9 expression at 1.25 to 10 uM by western blot analysis; format: functional, cell-based; details: dose 1.25-10 µM, DDE = dose-dependent effect
[21] = system: HGC-27; assay: Induction of cell cycle arrest in human HGC-27 cells assessed as cells accumulation at G2/M phase at 2 to 16 uM after 48 hrs by propidium iodide staining based flow cytometric analysis (reference value: 5.3%); format: functional; details: dose 2-16 µM
[22] = AUC(0 to t) in Sprague-Dawley rat at 50 mg/kg, ip measured upto 24 hrs by LC-MS analysis; format: ADME, organism-based; set-up: time < 24 hrs, dose 50 mg/kg, route ip; details: in vivo
[23] = system: MGC-803; assay: Antitumor activity against human MGC-803 cells xenografted in immunodeficient nude mouse assessed as tumor weight at 50 mg/kg, ip administered for 3 weeks (reference value: 157.8 mg); format: functional
[24] = system: HGC-27; assay: Induction of mitochondrial membrane potential loss in human HGC-27 cells assessed as TMRE positive cells at 2 to 16 uM by TRME staining based flow cytometric analysis (reference value: 5.8%); format: functional, cell-based; details: dose 2-16 µM, DDE = dose-dependent effect
[25] = system: HGC-27; assay: Down regulation of MMP9 expression in human HGC-27 cells at 2 to 16 uM after 24 hrs by western blot analysis; format: functional, cell-based; details: dose 2-16 µM, DDE = dose-dependent effect
[26] = system: MGC-803; assay: Induction of mitochondrial membrane potential loss in human MGC-803 cells assessed as TMRE positive cells at 1.25 to 10 uM by TRME staining based flow cytometric analysis (reference value: 6.8%); format: functional, cell-based; details: dose 1.25-10 µM, DDE = dose-dependent effect
[27] = system: HGC-27; assay: Induction of apoptosis in human HGC-27 cells assessed as increase in apoptotic cells at 2 to 16 uM after 48 hr by AnnexinV-FITC/PI staining based flow cytometric analysis (reference value: 5.03%); format: functional, cell-based; details: dose 2-16 µM, DDE = dose-dependent effect
[28] = system: MGC-803; assay: Induction of apoptosis in human MGC-803 cells assessed as increase in twin-kiling cell nuclei at 1.25 to 10 uM by Hoechst 33342 staining based fluorescent microscopic analysis; format: functional; details: dose 1.25-10 µM
[29] = MRT(0 to t) in Sprague-Dawley rat at 50 mg/kg, ip measured upto 24 hrs by LC-MS analysis; format: ADME, organism-based; details: in vivo
[30] = system: HGC-27; assay: Induction of apoptosis in human HGC-27 cells assessed as reduction in BCl2 expression at 2 to 16 uM by western blot analysis; format: functional, cell-based; details: dose 2-16 µM, DDE = dose-dependent effect
[31] = system: HGC-27; assay: Inhibition of colony formation in human HGC-27 cells at 1 to 8 uM after 7 to 10 days by crystal violet staining based assay; format: functional, cell-based; details: dose 1-8 µM, time 7-10 day, DDE = dose-dependent effect
[32] = system: HGC-27; assay: Inhibition of PI3K/AKT/mTOR signalling pathway in human HGC-27 cells assessed as reduction in mTOR phosphorylation at 2 to 16 uM by western blot analysis; format: cell-based; details: dose 2-16 µM, DDE = dose-dependent effect
[33] = system: HGC-27; assay: Induction of ROS generation in human HGC-27 cells at 2 to 16 uM by DCFH-DA staining based fluorescence microscopic analysis; format: functional, cell-based; details: dose 2-16 µM, DDE = dose-dependent effect
[34] = system: MGC-803; assay: Induction of apoptosis in human MGC-803 cells assessed as increase in apoptotic cells at 1.25 to 10 uM after 48 hr by AnnexinV-FITC/PI staining based flow cytometric analysis (reference value: 2.71%); format: functional, cell-based; details: dose 1.25-10 µM, DDE = dose-dependent effect
[35] = Tmax in Sprague-Dawley rat at 50 mg/kg, ip measured upto hrs by LC-MS analysis; format: ADME, organism-based; details: in vivo, time < 24 hrs

- inhibition [7]: Active
- Cmax [16]: 8900 ng/mL
- AUC(0-t) at 24 h [22]: 29500 ng·h/mL
- MRT last at 24 h [29]: 3.3 h
- Tmax [35]: 2 h
SMILES: Oc1c(Cc2nccc3cc4c(cc23)OCO4)ccc2c1OCO2
- IC50 [1]: 7.6 µM
- IC50 [2]: 98.4 µM
- inhibition in vivo at 50 mg/kg [3]: 63.8%
- Activity [4]: Dde
- Activity [5]: Active
- inhibition [6]: Dde
- inhibition [8]: Dde
- inhibition [9]: Dde
- inhibition [10]: Dde
- Activity [11]: 41.1%
- Activity ([11]; DDE = dose-dependent effect): Dde
- Activity [12]: Dde
- inhibition [13]: Dde
- Activity [14]: Active
- inhibition [15]: Dde
- inhibition [17]: Dde
- Activity [18]: Dde
- Activity [19]: Dde
- Activity [20]: Dde
- Activity [21]: 51.2%
- Activity [23]: 176.2 mg
- Activity [24]: Dde
- Activity [25]: Dde
- Activity [26]: Dde
- Activity [27]: Dde
- Activity [28]: 29.5%
- Activity ([28]; DDE = dose-dependent effect): Dde
- Activity [30]: Dde
- inhibition [31]: Dde
- inhibition [32]: Dde
- Activity [33]: Dde
- Activity [34]: Dde

Source: ChEMBL document CHEMBL5143625, “Isolation, synthesis and bioactivity evaluation of isoquinoline alkaloids from Corydalis hendersonii Hemsl. against gastric cancer in vitro and in vivo” (Bioorg Med Chem, 2022)
